Legend:
[1] = system: Stichococcus bacillaris SAG 379-1a / CCAP 379/1a; assay: Algal efficacy testing of dry paint film (modified ASTM 5589), Stichococcus; format: cell-based
Procedure: (§1) These paints were then diluted with an antimicrobial free acrylic/silicone based paint and mixed to prepare targeted concentrations of antimicrobial compounds for the testing. The total biocides concentrations tested were 125, 250, 500, 1000, 2000 and 5000 ppm. After biocides addition or dilution, the paints were mixed 90 seconds with the horse power shaker (AXEL 75M3372/Agitateur SO-10MI) until uniformity was achieved. Paints containing different antimicrobial compounds at the same levels were mixed together in order to obtain the desired ratio of antimicrobial compounds. After one day, the paints were applied to Schleicher & Schuell filter paper at 280 μm wet film thickness and dried for 3 days at room temperature avoiding direct exposure to sunlight. Square discs (1.6 cm×1.6 cm) were cut out from each panel and were used as the substrate for algal efficacy tests. This sample size allowed for an agar border when the sample disc was placed into the well of the test plate.
(§2) Algal efficacy was tested according to modified ASTM 5589 which is a standard accelerated test method for determining resistance of various coatings (including paints) to algal defacement. To accommodate for high-throughput screening, this method was scaled down from petri dishes to 6-well plates. Bold Modified Basal Freshwater Nutrient Solution was used as growth medium. A single coated filter paper coupon was placed with a pair of sterile forceps at the center of the agar plug (on top) with the painted surface facing upwards. Algal inoculums were prepared by mixing equal concentrations (1×10^6 cfu/ml) and equal volumes of exponentially growing algae cultures.
(§3) Each well that contains a tested coupon was inoculated with 1750 μl of algal suspensions (1×10^6 cfu/ml) making sure that the whole surface (paint film as well as the agar surrounding it) was evenly covered. […]
(§4) At the end of the three week incubation period, the samples were scored for percent inhibition regarding visible algal growth compared to the blank sample (0% inhibition).
(§5) The SI is calculated based on F. C. […]

Chlorella sp. ATCC 7516 = assay: Algal efficacy testing of dry paint film (modified ASTM 5589), Chlorella; format: cell-based
Procedure: as §1, §2, §3, §4, §5

[2] = total active in paint, 3 weeks incubation, maximum tested conc given if pass not reached

Structure (SMILES)	inhibition at 5000 ppm ([1]; Stichococcus bacillaris, 504 h, total conc 5000 ppm, 3 weeks, visible algal growth vs blank)	inhibition at 5000 ppm (Chlorella sp. ATCC 7516; 504 h, total conc 5000 ppm, 3 weeks, visible algal growth vs blank)	Total conc (minimum inhibitory concentration chosen for SI; pass level ≧75% inhibition) [1, 2]	% inhibition ([1]; total conc 500 ppm, 3 weeks, visible algal growth vs blank)	Total conc (minimum inhibitory concentration chosen for SI; pass level ≧75% inhibition) (Chlorella sp. ATCC 7516; [2])	% inhibition (Chlorella sp. ATCC 7516; total conc 1000 ppm, 3 weeks, visible algal growth vs blank)
O=c1[nH]c2c(c(=O)n1C1CCCCC1)CCC2 [Lenacil, 3-cyclohexyl-1,5,6,7-tetrahydrocyclopentapyrimidine-2,4(3H)-dione]	70%	30%				
[O-][n+]1ccccc1[S][Zn][S]c1cccc[n+]1[O-] [ZnPT, bis(2-pyridylthio)zinc 1,1′-dioxide]			500 ppm	75%	1000 ppm	100%

Reference: patent US9288991B2 (Rohm and Haas Company, priority 2012, dated 2016)
